Counter-ions that a name gives are not always drawn.
Tests used:
Type in all cases: biochemical
[1] = molecular target: human JAK2 catalytic kinase (JH1) domain (Homo sapiens (Human), UniProt O60674); experiment: ADP-Glo Kinase Assay, recombinant JAK2 catalytic kinase (JH1) domain; settings: recombinant JH1 domain 0.2 nM, 15 μM ATP, JAK3-974 peptide, mean, read-out: JAK2 biochem IC50 (nM) Mean
Outline: (§1)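 Enzyme levels: JAK1 4 nM, JAK2 0.2 nM, JAK3 0.3 nM, TYK2 2 nM. Peptide substrate at 50 μM. Reactions ran 100 minutes; ADP formed was converted to luciferase luminescence after ATP depletion. Compounds tested from 10 μM or 1 μM top, 11-point 3-fold dilutions; IC50 from 4-parameter logistic fit of normalized percent activity.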

[2] = molecular target: human JAK3 catalytic kinase (JH1) domain (Homo sapiens (Human), UniProt P52333); experiment: ADP-Glo Kinase Assay, recombinant JAK3 catalytic kinase (JH1) domain; settings: recombinant JH1 domain 0.3 nM, 4 μM ATP, JAK3-974 peptide, mean, read-out: JAK3 biochem IC50 (nM) Mean
Chain of human JAK3 catalytic kinase (JH1) domain (P52333 822-1111): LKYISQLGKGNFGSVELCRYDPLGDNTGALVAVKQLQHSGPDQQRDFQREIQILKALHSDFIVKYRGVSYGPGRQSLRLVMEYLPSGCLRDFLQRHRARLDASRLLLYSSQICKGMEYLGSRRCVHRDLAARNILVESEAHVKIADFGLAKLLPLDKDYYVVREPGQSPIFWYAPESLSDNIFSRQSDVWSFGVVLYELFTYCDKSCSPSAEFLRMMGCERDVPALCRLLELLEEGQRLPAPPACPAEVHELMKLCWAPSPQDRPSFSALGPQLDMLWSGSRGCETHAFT
Outline: as §1

[3] = molecular target: human JAK1 catalytic kinase (JH1) domain (Homo sapiens (Human), UniProt P23458); experiment: ADP-Glo Kinase Assay, recombinant JAK1 catalytic kinase (JH1) domain; settings: recombinant JH1 domain 4 nM, 35 μM ATP, JAK3-342 peptide, mean, read-out: JAK1 biochem IC50 (nM) Mean
Chain of human JAK1 catalytic kinase (JH1) domain (P23458 875-1153): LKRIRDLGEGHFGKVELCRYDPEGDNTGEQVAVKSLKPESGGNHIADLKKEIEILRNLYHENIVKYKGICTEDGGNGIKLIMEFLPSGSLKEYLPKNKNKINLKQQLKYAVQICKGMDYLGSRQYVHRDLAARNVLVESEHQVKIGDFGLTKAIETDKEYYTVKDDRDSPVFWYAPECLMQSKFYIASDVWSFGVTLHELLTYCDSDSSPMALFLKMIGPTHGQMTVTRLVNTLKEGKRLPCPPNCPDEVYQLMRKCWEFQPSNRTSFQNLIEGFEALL
Outline: as §1

[4] = molecular target: human TYK2 catalytic kinase (JH1) domain (Homo sapiens (Human), UniProt P29597); experiment: ADP-Glo Kinase Assay, recombinant TYK2 catalytic kinase (JH1) domain; settings: recombinant JH1 domain 2 nM, 10 μM ATP, JAK3-974 peptide, mean, read-out: TYK2 biochem IC50 (nM) Mean
Chain of human TYK2 catalytic kinase (JH1) domain (P29597 897-1176): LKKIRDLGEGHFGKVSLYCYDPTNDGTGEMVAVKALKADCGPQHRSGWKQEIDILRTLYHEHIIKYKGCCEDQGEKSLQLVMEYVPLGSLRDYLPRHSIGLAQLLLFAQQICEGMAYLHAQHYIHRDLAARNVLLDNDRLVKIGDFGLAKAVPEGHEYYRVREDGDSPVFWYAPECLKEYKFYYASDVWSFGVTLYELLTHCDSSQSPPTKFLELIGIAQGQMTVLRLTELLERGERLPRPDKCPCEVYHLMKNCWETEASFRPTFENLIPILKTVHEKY
Outline: as §1

Chain of human JAK2 catalytic kinase (JH1) domain (O60674 849-1124): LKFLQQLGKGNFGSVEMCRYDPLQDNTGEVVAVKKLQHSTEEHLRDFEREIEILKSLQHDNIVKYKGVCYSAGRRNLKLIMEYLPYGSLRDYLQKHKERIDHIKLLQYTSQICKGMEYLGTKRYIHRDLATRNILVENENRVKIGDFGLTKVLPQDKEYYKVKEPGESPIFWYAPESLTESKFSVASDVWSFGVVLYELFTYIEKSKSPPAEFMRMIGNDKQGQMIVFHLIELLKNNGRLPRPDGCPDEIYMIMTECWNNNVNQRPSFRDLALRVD

SMILES	IC50 [1] [nM]	IC50 [2] [nM]	IC50 [3] [nM]	IC50 [4] [nM]
CC(C)(F)C(=O)N1C2CCC1CN(c1ncnn3cc(-c4cnn(C(F)F)c4)cc13)C2 [Example 32, 1-(3-(6-(1-(difluoromethyl)-1H-pyrazol-4-yl)pyrrolo[2,1-f][1,2,4]triazin-4-yl)-3,8-diazabicyclo[3.2.1]octan-8-yl)-2-fluoro-2-methylpropan-1-one trifluoroacetate]	4400	2990	1800	242
Cn1cc(-c2cc3c(N4CC5CCC(C4)N5C(=O)C4CC4(F)F)ncnn3c2)cn1 (stereo not drawn) [Example 63, (2,2-difluorocyclopropyl)(3-(6-(1-methyl-1H-pyrazol-4-yl)pyrrolo[2,1-f][1,2,4]triazin-4-yl)-3,8-diazabicyclo[3.2.1]octan-8-yl)methanone]	3050	4530	787	117
O=C([C@H]1C[C@@H](C(F)(F)F)C1)N1C2CCC1CN(c1ncnn3cc(-c4cnn(C(F)F)c4)cc13)C2 [Example 29, (3-(6-(1-(difluoromethyl)-1H-pyrazol-4-yl)pyrrolo[2,1-f][1,2,4]triazin-4-yl)-3,8-diazabicyclo[3.2.1]octan-8-yl)((1s,3s)-3-(trifluoromethyl)cyclobutyl)methanone]	4250	7470	774	238
Cn1cc(-c2cc3c(N4CC5CCC(C4)N5C(=O)CC#N)ncnn3c2)cn1 [Example 62, 3-(3-(6-(1-methyl-1H-pyrazol-4-yl)pyrrolo[2,1-f][1,2,4]triazin-4-yl)-3,8-diazabicyclo[3.2.1]octan-8-yl)-3-oxopropanenitrile]	8710	6830	860	351
Cn1ncc(-c2cc3c(N4CC5CCC(C4)N5C(=O)[C@@H]4C[C@H]4F)ncnn3c2)c1F [Example 97, (3-(6-(5-fluoro-1-methyl-1H-pyrazol-4-yl)pyrrolo[2,1-f][1,2,4]triazin-4-yl)-3,8-diazabicyclo[3.2.1]octan-8-yl)((1S,2R)-2-fluorocyclopropyl)methanone]	1380	4040	1320	76.8
Cn1cc(-c2cc3c(N4CC5CCC(C4)N5C(=O)[C@@H]4C[C@@H]4F)ncnn3c2)cn1 [Example 80, ((1S,2S)-2-fluorocyclopropyl)(3-(6-(1-methyl-1H-pyrazol-4-yl)pyrrolo[2,1-f][1,2,4]triazin-4-yl)-3,8-diazabicyclo[3.2.1]octan-8-yl)methanone]	8020	2050	1340	483
Cc1cc(-c2cc3c(N4CC5CCC(C4)N5C(=O)[C@@H]4C[C@H]4F)ncnn3c2)ccn1 [Example 91, ((1S,2R)-2-fluorocyclopropyl)(3-(6-(2-methylpyridin-4-yl)pyrrolo[2,1-f][1,2,4]triazin-4-yl)-3,8-diazabicyclo[3.2.1]octan-8-yl)methanone]	624	4500	316	21.8
COc1cc(-n2cc3nccc(N4CC5CCC(C4)N5C(=O)[C@@H]4C[C@H]4F)c3n2)ccn1 [Example 37, ((1S,2R)-2-fluorocyclopropyl)(3-(2-(2-methoxypyridin-4-yl)-2H-pyrazolo[4,3-b]pyridin-7-yl)-3,8-diazabicyclo[3.2.1]octan-8-yl)methanone]	88	868	72	11
O=C(C1CC1)N1C2CCC1CN(c1ncnn3cc(-c4cnn(C(F)F)c4)c(F)c13)C2 [Example 163]	10000	10000	5120	746
Cn1cc(-c2cc3c(N4CC5CCC(C4)N5C(=O)[C@@H]4C[C@H]4F)ccnn3c2)c(F)n1 [Example 118, (3-(6-(3-fluoro-1-methyl-1H-pyrazol-4-yl)pyrrolo[1,2-b]pyridazin-4-yl)-3,8-diazabicyclo[3.2.1]octan-8-yl)((1S,2R)-2-fluorocyclopropyl)methanone]	28	502	92	1.8
CCC(=O)N1C2CCC1CN(c1ncnn3cc(-c4cnn(C(F)F)c4)cc13)C2 [Example 41, 1-(3-(6-(1-(difluoromethyl)-1H-pyrazol-4-yl)pyrrolo[2,1-f][1,2,4]triazin-4-yl)-3,8-diazabicyclo[3.2.1]octan-8-yl)propan-1-one]	8760	8430	2260	560
O=C([C@@H]1C[C@H]1F)N1C2CCC1CN(c1ccnn3cc(-c4ccc(=O)n(C(F)F)c4)cc13)C2 [Example 132, 1-(difluoromethyl)-5-(4-(8-((1S,2R)-2-fluorocyclopropane-1-carbonyl)-3,8-diazabicyclo[3.2.1]octan-3-yl)pyrrolo[1,2-b]pyridazin-6-yl)pyridin-2(1H)-one]	37	452	34	3.3
Cn1cc(-c2cc3c(N4CC5CCC(C4)N5C(=O)C4CCC4)ncnn3c2)cn1 [Example 67, Cyclobutyl(3-(6-(1-methyl-1H-pyrazol-4-yl)pyrrolo[2,1-f][1,2,4]triazin-4-yl)-3,8-diazabicyclo[3.2.1]octan-8-yl)methanone]	7460	4440	3230	365
O=C(C1CC1(F)F)N1C2CCC1CN(c1ncnn3cc(-c4cnn(C(F)F)c4)cc13)C2 (stereo not drawn) [Example 49, (2,2-difluorocyclopropyl)(3-(6-(1-(difluoromethyl)-1H-pyrazol-4-yl)pyrrolo[2,1-f][1,2,4]triazin-4-yl)-3,8-diazabicyclo[3.2.1]octan-8-yl)methanone]	2100	4900	475	81
O=C(C1C[C@H]1F)N1C2CCC1CN(c1ncnc3[nH]c(-c4ccncc4F)cc13)C2 (stereo partly drawn) [Example 232]	322	848	226	13.1
O=C(C1CC1)N1C2CCC1CN(c1ncnn3cc(-c4ccncc4)cc13)C2 [Example 181]	7860	5520	1040	229
Cc1cc(-c2nc3c(N4CC5CCC(C4)N5C(=O)[C@@H]4C[C@H]4F)ccnc3[nH]2)ccn1 [Example 202, ((1S,2R)-2-fluorocyclopropyl)(3-(2-(2-methylpyridin-4-yl)-3H-imidazo[4,5-b]pyridin-7-yl)-3,8-diazabicyclo[3.2.1]octan-8-yl)methanone]	14	199	5	2.5
O=C([C@@H]1CC1(F)F)N1C2CCC1CN(c1ncnc3[nH]c(-c4cnn(C(F)F)c4)cc13)C2 [Example 222, ((S)-2,2-difluorocyclopropyl)(3-(6-(1-(difluoromethyl)-1H-pyrazol-4-yl)-7H-pyrrolo[2,3-d]pyrimidin-4-yl)-3,8-diazabicyclo[3.2.1]octan-8-yl)methanone]	128	999	132	5.7
O=C(C1CCC1)N1C2CCC1CN(c1ncnn3cc(-c4cnn(C(F)F)c4)cc13)C2 [Example 51, cyclobutyl(3-(6-(1-(difluoromethyl)-1H-pyrazol-4-yl)pyrrolo[2,1-f][1,2,4]triazin-4-yl)-3,8-diazabicyclo[3.2.1]octan-8-yl)methanone]	9130	7870	2830	407
CN1CCOC(c2nc3c(N4CC5CCC(C4)N5C(=O)[C@@H]4C[C@H]4F)ccnc3[nH]2)C1 (stereo partly drawn) [Example 218, ((1S,2R)-2-fluorocyclopropyl)(3-(2-(4-methylmorpholin-2-yl)-3H-imidazo[4,5-b]pyridin-7-yl)-3,8-diazabicyclo[3.2.1]octan-8-yl)methanone]	10000	10000	2940	783
Cn1cc(-c2cc3c(N4CC5CCC(C4)N5C(=O)[C@H]4C[C@@H]4F)ncnn3c2)cn1 (racemic) [Example 61, Rac-((1R,2S)-2-fluorocyclopropyl)(3-(6-(1-methyl-1H-pyrazol-4-yl)pyrrolo[2,1-f][1,2,4]triazin-4-yl)-3,8-diazabicyclo[3.2.1]octan-8-yl)methanone]	1870	3760	992	37.7
COc1cc(-c2cc3c(N4CC5CCC(C4)N5C(=O)[C@@H]4C[C@H]4F)ccnn3c2)cnn1 [Example 137, ((1S,2R)-2-fluorocyclopropyl)(3-(6-(6-methoxypyridazin-4-yl)pyrrolo[1,2-b]pyridazin-4-yl)-3,8-diazabicyclo[3.2.1]octan-8-yl)methanone]	220	4200	150	17.6
Cn1cc(-c2cc3c(N4CC5CCC(C4)N5C(=O)[C@H]4C[C@@H]4F)ncnn3c2)cn1 (single isomer, unassigned) [Example 81]	1450	5610	1420	31.2
O=C([C@@H]1C[C@H]1CO)N1C2CCC1CN(c1ncnn3cc(-c4cnn(C(F)F)c4)cc13)C2 (single isomer, unassigned) [Example 40]	9400	≥ 10000	5120	289

From patent publication US20240360157A1, “TYK2 INHIBITORS” (BIOGEN MA INC., priority 2021, published 2024)
